The target in this assay is T1, C5AR1 (Homo sapiens, UniProt P21730).
T1 construct: host or cells: CHO-K1
T1 sequence (P21730 1-350): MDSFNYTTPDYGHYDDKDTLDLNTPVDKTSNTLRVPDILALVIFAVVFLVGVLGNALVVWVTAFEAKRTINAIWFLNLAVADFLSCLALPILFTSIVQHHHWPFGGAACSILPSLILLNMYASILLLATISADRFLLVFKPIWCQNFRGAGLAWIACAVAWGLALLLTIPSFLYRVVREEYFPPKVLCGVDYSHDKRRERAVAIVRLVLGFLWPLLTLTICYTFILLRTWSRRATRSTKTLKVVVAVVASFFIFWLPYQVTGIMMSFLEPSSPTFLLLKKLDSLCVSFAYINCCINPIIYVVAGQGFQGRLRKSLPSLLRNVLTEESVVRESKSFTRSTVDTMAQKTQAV
Briefly: hC5a DISCO IC50 assay (PathHunter beta-arrestin, antagonist mode). The format is cell-based. To be noted: CHO-K1 C5AR1 beta-arrestin cell line; antagonist vs 1-10 nM C5a agonist; geometric mean values; read-out: C5aR IC50. An outline of the steps: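 Antagonist added first, then 1-10 nM C5a agonist; cells incubated 1.5 h at 37 °C. Beta-arrestin signal developed with PathHunter detection reagent, 45 min at RT. IC50 in nmol/l from serial antagonist dilutions, reported as geometric mean of several measurements.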

Structures are written as SMILES.

With `COC(=O)N1CCC(n2c(=O)n(Cc3ccccc3C(F)(F)F)c3c(OC)cccc32)CC1` [Example 29, 4-[4-Methoxy-2-oxo-3-(2-trifluoromethyl-benzyl)-2,3-dihydro-benzoimidazol-1-yl]-piperidine-1-carboxylic acid methyl ester], the IC50 came out at 182 nM.

Consider `COc1cccc2c1n(Cc1ccccc1OC(F)(F)F)c(=O)n2[C@@H]1CCN(c2c(C)cccc2C)C1` [Example 22, 1-[(R)-1-(2,6-Dimethyl-phenyl)-pyrrolidin-3-yl]-4-methoxy-3-(2-trifluoromethoxy-benzyl)-1,3-dihydro-benzoimidazol-2-one], for which the IC50 is 30 nM.

Take `COc1cccc2c1n(Cc1ccccc1C(F)(F)F)c(=O)n2[C@@H]1CCN(c2c(C)ccnc2C)C1` [Example 66, 1-[(R)-1-(2,4-Dimethyl-pyridin-3-yl)-pyrrolidin-3-yl]-4-methoxy-3-(2-trifluoromethyl-benzyl)-1,3-dihydro-benzoimidazol-2-one]: the IC50 was 60 nM.

Turning to `COC(=O)c1cccc2c1n(Cc1ccccc1C(F)(F)F)c(=O)n2[C@@H]1CCN(c2c(F)cccc2C#N)C1` [Example 98, 1-[(R)-1-(2-Cyano-6-fluoro-phenyl)-pyrrolidin-3-yl]-2-oxo-3-(2-trifluoromethyl-benzyl)-2,3-dihydro-1H-benzoimidazole-4-carboxylic acid methyl ester], the IC50 was 165 nM.

As for `COc1cccc2c1n(Cc1cncnc1C(F)(F)F)c(=O)n2[C@@H]1CCN(c2c(C)cccc2F)C1` [Example 176, 1-[(R)-1-(2-Fluoro-6-methyl-phenyl)-pyrrolidin-3-yl]-4-methoxy-3-(4-trifluoromethyl-pyrimidin-5-ylmethyl)-1,3-dihydro-benzoimidazol-2-one], the IC50 amounted to 48 nM.

Regarding `Cc1cccc(F)c1N1CC[C@@H](n2c(=O)n(Cc3ccccc3C(F)(F)F)c3c(OCC4COC(C)(C)O4)nccc32)C1` (stereo partly drawn) [Example 125, 4-(2,2-Dimethyl-[1,3]dioxolan-4-ylmethoxy)-1-[(R)-1-(2-fluoro-6-methyl-phenyl)-pyrrolidin-3-yl]-3-(2-trifluoromethyl-benzyl)-1,3-dihydro-imidazo[4,5-c]pyridin-2-one], the IC50 stood at 124 nM.

For the compound `COc1cccc2c1n(Cc1ccccc1C(F)(F)F)c(=O)n2C1CCN(C(=O)OC(C)(C)C)CC1C` (stereo not drawn) [Example 146, 4-[4-Methoxy-2-oxo-3-(2-trifluoromethyl-benzyl)-2,3-dihydro-benzoimidazol-1-yl]-3-methyl-piperidine-1-carboxylic acid tert-butyl ester], the IC50 was found to be 201 nM.

As for `COc1cccc(F)c1N1CC[C@@H](n2c(=O)n(Cc3ccccc3C(F)(F)F)c3c(=O)[nH]ccc32)C1` [Example 56, 1-[(R)-1-(2-Fluoro-6-methoxy-phenyl)-pyrrolidin-3-yl]-3-(2-trifluoromethyl-benzyl)-3,5-dihydro-1H-imidazo[4,5-c]pyridine-2,4-dione], the IC50 is 717 nM.

Take `COc1cccc2c1n(Cc1ccccc1C(F)(F)F)c(=O)n2[C@@H]1CCN(c2c(F)cncc2F)C1` [Example 34, 1-[(R)-1-(3,5-Difluoro-pyridin-4-yl)-pyrrolidin-3-yl]-4-methoxy-3-(2-trifluoromethyl-benzyl)-1,3-dihydro-benzoimidazol-2-one]: the IC50 came to 27 nM.

As for `N#Cc1cccc(F)c1N1CC[C@@H](n2c(=O)n(Cc3ccccc3C(F)(F)F)c3c(CO)cccc32)C1` [Example 102, 3-Fluoro-2-{(R)-3-[4-hydroxymethyl-2-oxo-3-(2-trifluoromethyl-benzyl)-2,3-dihydro-benzoimidazol-1-yl]-pyrrolidin-1-yl}-benzonitrile], the IC50 came out at 759 nM.

On to `COc1cccc2c1n(Cc1ccccc1C1CC1)c(=O)n2C1CCN(c2c(C)cccc2F)CC1` [Example 223, 3-(2-Cyclopropyl-benzyl)-1-[1-(2-fluoro-6-methyl-phenyl)-piperidin-4-yl]-4-methoxy-1,3-dihydro-benzoimidazol-2-one], for which the IC50 turned out to be 130 nM.

Consider `COc1cccc2c1n(Cc1ncccc1C(F)(F)F)c(=O)n2C1CCN(C(=O)OC(C)(C)C)CC1` [Example 64, 4-[4-Methoxy-2-oxo-3-(3-trifluoromethyl-pyridin-2-ylmethyl)-2,3-dihydro-benzoimidazol-1-yl]-piperidine-1-carboxylic acid tert-butyl ester], for which the IC50 worked out at 2920 nM.

As for `Cc1cccc(F)c1N1CC[C@@H](n2c(=O)n(Cc3ccccc3C(F)(F)F)c3c(OC4COC4)cccc32)C1` [Example 149, 1-[(R)-1-(2-Fluoro-6-methyl-phenyl)-pyrrolidin-3-yl]-4-(oxetan-3-yloxy)-3-(2-trifluoromethyl-benzyl)-1,3-dihydro-benzoimidazol-2-one], the half-inhibitory concentration (IC50) stood at 14 nM.

With `COc1cccc2c1n(Cc1ccccc1C(F)(F)F)c(=O)n2[C@@H]1CCN(c2c(F)cccc2N2CCOCC2)C1` [Example 161, 1-[(R)-1-(2-Fluoro-6-morpholin-4-yl-phenyl)-pyrrolidin-3-yl]-4-methoxy-3-(2-trifluoromethyl-benzyl)-1,3-dihydro-benzoimidazol-2-one], the IC50 was 69 nM.

On to `COc1cccc2c1n(Cc1ccccc1OCC1CC1)c(=O)n2C1CCN(c2c(C)cccc2F)CC1` [Example 224, 3-(2-Cyclopropylmethoxy-benzyl)-1-[1-(2-fluoro-6-methyl-phenyl)-piperidin-4-yl]-4-methoxy-1,3-dihydro-benzoimidazol-2-one], for which the IC50 is 18 nM.

For the compound `COc1ncncc1Cn1c(=O)n(C2CCN(c3c(F)cccc3C#N)CC2)c2cccc(OC)c21` [Example 113, 3-Fluoro-2-{4-[4-methoxy-3-(4-methoxy-pyrimidin-5-ylmethyl)-2-oxo-2,3-dihydro-benzoimidazol-1-yl]-piperidin-1-yl}-benzonitrile], the IC50 is 2240 nM.

Regarding `COc1nccnc1Cn1c(=O)n([C@@H]2CCN(c3c(F)cccc3C#N)C2)c2cccc(OC)c21` [Example 112, 3-Fluoro-2-{(R)-3-[4-methoxy-3-(3-methoxy-pyrazin-2-ylmethyl)-2-oxo-2,3-dihydro-benzoimidazol-1-yl]-pyrrolidin-1-yl}-benzonitrile], the IC50 worked out at 511 nM.

As to `COc1cccc2c1n(Cc1cnccc1C(F)(F)F)c(=O)n2C1CCN(c2c(C)cccc2C)CC1` [Example 58, 1-[1-(2,6-Dimethyl-phenyl)-piperidin-4-yl]-4-methoxy-3-(4-trifluoromethyl-pyridin-3-ylmethyl)-1,3-dihydro-benzoimidazol-2-one], the IC50 was 25 nM.

Take `COc1cccc2c1n(Cc1ccccc1OC(C)C)c(=O)n2C1CCN(c2c(C)cccc2F)CC1` [Example 166, 1-[1-(2-Fluoro-6-methyl-phenyl)-piperidin-4-yl]-3-(2-isopropoxy-benzyl)-4-methoxy-1,3-dihydro-benzoimidazol-2-one]: the IC50 was 17 nM.

Consider `COc1cccc2c1n(Cc1ccccc1C(F)(F)F)c(=O)n2[C@@H]1CCN(c2c(C)cncc2C)C1` [Example 36, 1-[(R)-1-(3,5-Dimethyl-pyridin-4-yl)-pyrrolidin-3-yl]-4-methoxy-3-(2-trifluoromethyl-benzyl)-1,3-dihydro-benzoimidazol-2-one], for which the IC50 turned out to be 450 nM.

For `COc1cccc2c1n(Cc1ccccc1C(F)(F)F)c(=O)n2C1CCN(c2c(C)ccnc2C#N)CC1` [Example 246, 4-[4-Methoxy-2-oxo-3-(2-trifluoromethyl-benzyl)-2,3-dihydro-benzoimidazol-1-yl]-4′-methyl-3,4,5,6-tetrahydro-2H-[1,3′]bipyridinyl-2′-carbonitrile], the IC50 is 39 nM.

Source of the values: patent publication US11739070B2, “C5A receptor modulators” (IDORSIA PHARMACEUTICALS LTD, priority 2018, dated 2023).
